Data reported in patent US20040014217A1, “Methods of transfection” (priority 2000, published 2004).

Key:
[1] = tested on: Human airway epithelial (HAE) cells; experiment: Luciferase (pCILuc) transfection of HAE cells, Example 13; format: cell-based
Experimental: Transfection vector complexes were prepared as described in the Material and Methods section, see also Example 15. The complexes were prepared using 4 μg of the peptide, 0.75 μg of lipofectin and 1 μg of the reporter gene. All components and the vector complex were made up in OptiMEM (Life Technologies, Inc.). EGTA (Sigma) at a concentration of 100 mM in water was added to the transfection vector complex preparation at one hundredth of the volume of the vector complex, giving a final EGTA concentration of 1 mM.
The EGTA/vector complex mixture was added to the cultures, which were then harvested two days later. As controls, cultures were treated with OptiMEM medium alone and with the transfection vector complex without EGTA.
We obtained essentially the same results using the luciferase reporter gene instead of GFP. Transfections ere carried out using the transfection vector prepared as described above with the construct pCILuc, with and without EGTA, as described above. Luciferase assays were performed on cell-free extracts of harvested cells using a kit obtained from Promega using an Anthos Lucy 1 Luminometer. As with the GFP experiments, luciferase levels were enhanced approximately four-fold in confluent cells treated with EGTA compared with transfections performed without EGTA. […]

1HAEo-cells = experiment: BrdU incorporation by flow cytometry, 1HAEo- cells; format: cell-based, human; details: EGTA 2 mM, aphidicolin 10 μg/ml where present
Experimental: A BrdU Labelling and Detection Kit (Roche, Basel, Switzerland) was used, which contains the BrdU labelling reagent and the monoclonal mouse anti-BrdU. […] Cells were washed with PBS and incubated with a second layer antibody, Texas Red labelled horse anti-mouse IgG (Vector Laboratories, Peterborough, UK), for 30 minutes at 37° C. and then analysed by flow cytometry at the wavelength of 575±20 nm as detailed above. In some experiments, aphidicolin, a cell-proliferation inhibitor blocking the cell cycle in S-phase, was added to the cells to observe the effects on transfection efficiency.

confluent 1HAEo-cells = experiment: Binding of FITC-labelled LID complexes to confluent cells; format: cell-based, human; details: 2 mM EGTA, 4° C.
Experimental: The effects of EGTA on cell binding were determined by transfection with LID complexes prepared with fluorescein (FITC) labelled peptide. Peptide-12 was labelled with FITC from a labelling kit (Calbiochem, San Diego, USA) and purified by dialyzing in PBS overnight, according to the manufacturer's instruction. The ability of FITC-conjugated peptide-12 to form complexes with plasmid DNA was determined by retardation test, in which the electrophoresis migration of DNA is retarded by forming complexes with the cationic peptide as described previously (Hart et al., 1995). […] The cells were then transfected with apically added LID-FITC for 60 minutes at 4° C., at which the complexes would only bind to cell surface and no internalisation would occur, see(Chu et al (1999), Cornelissen et al (1997), Im et al (1986). The surface binding of the LID complexes was further differentiated from the internalised LID by incubating the cells with 1 μg/ml crystal violet (Sigma, Poole, UK) for 10 minutes at 4° C., to quench the fluorescence of surface-bound LID complexes, see (Ma et al (1997), Van Amers & Van Strijp (1994). The mean numbers of fluorescent particles were then counted in 10 random microscope fields and comparison was made between the data obtained from EGTA-treated or untreated cells.

[2] = tested on: normal and CF epithelial cell lines; experiment: Transfection of sub-confluent and confluent airway epithelial cell lines (summary of description); format: cell-based, human
Description: However, all the cell lines tested were transfected under conventional conditions for transfection, that is to say, the cells were sub-confluent. It has been reported that mitosis is required for efficient transformation using cationic liposomes and also when using peptide-based transformation systems (Wilke, 1996; Tseng 1999; Brunner 2000). Confluent cells and/or cells treated with inhibitors of DNA polymerase such as aphidicolin are non-mitotic and transfect with polycationic vectors with low efficiency. The major cell limiting step is considered to be delivery of the transfected nucleic acid into the nucleus. Transportation of the nucleic acid through the cytoplasm to the nucleus is slow and the pores in the nuclear envelope are too small to permit rapid entry of the transfected nucleic acid. It is generally accepted that sub-confluent cultures, in which the cells are dividing, should be used for transfection. We attempted transfection with the transfection complexes of WO98/54347 but using cell line cultures that were confluent i.e. effectively non-mitotic.
The present invention is based on the surprising observation that the use of EGTA with a transfection vector comprising DNA, an integrin-binding component, a polycationic nucleic acid-binding component, and a lipid component, enhances transfection efficiency of confluent cells, which are slowly dividing or non-dividing i.e. substantially non-mitotic cells, in vitro and in vivo.
In accordance with the present invention integrin-targeted transfection vector complexes comprising peptide 6 above, which is an α5β1-targeted peptide, linked to oligolysine comprising 16 lysines i.e. K16, (component I); lipofectin (component L); and a reporter gene (component D) were used with EGTA for transfection. Sub-confluent normal and CF epithelial cell lines were transfected with the green fluorescent report gene and transfection efficiencies of 40 to 50% were achieved. Cells were then cultured in confluent monolayers to model more closely airway structure. […]

[3] = tested on: confluent epithelial cells; experiment: Transepithelial resistance after EGTA exposure; details: 2 mM EGTA; data not shown
mouse lung = experiment: Transfection of mouse lungs in vivo (luciferase), intra-tracheal instillation
Experimental: Lipid (lipofectin) (1 mg/ml) and peptide 6 ([sequence]) (1 mg/ml) were mixed in one tube and pCILuc Plasmid DNA (1 mg/ml) and EGTA in phosphate buffer saline (PBS) were mixed together in another tube then the contents of the two tubes were mixed so that the final ratios were 0.75 μg lipid to 1 μg DNA and a final concentration of 100 mM EGTA (or no EGTA for the control). The protocol was repeated to give vector complexes having a final EGTA concentration of 400 mM.
Each mouse received 8 μg of plasmid DNA in a volume of 50 μl.
Cell lysis buffer (Promega, Southampton, England) was added to each lung (4 μl/mg). The tissue was then homogenised two times, on ice, for 30 seconds each time (Polytron PT10-35, Philip Harris, Nottingham, England). Lung homogenates were is centrifuged at 10,000×g at 4 C for 10 minutes, then 20 μl of the supernatant were added to 100 μl of luciferase assay buffer (Promega) and luminescence measured in a luminometer (TD-20/20; Steptech Instruments, Stevenage, England). All results were repeated in triplicate and the mean calculated.
The total protein concentration in the lysate was measured using a protein assay kit (Bio-Rad, Hemel Hempstead, Herts, England) and using bovine serum albumin as a standard. Luciferase activity was expressed in relative light units (RLU) for each sample of lung lysate minus the background and normalised per mg of protein.

O=C(O)CN(CCOCCOCCN(CC(=O)O)CC(=O)O)CC(=O)O [EGTA, ethylene glycol-bis(β-aminoethyl ether)-N,N,N′,N′-tetraacetic acid]
enhancement of luciferase levels in confluent cells versus transfection without EGTA ([1]; pCILuc): approximately four-fold
transfection after pre-incubation of the cells with EGTA ([1]; pre-incubation before vector): no better than the results without EGTA
BrdU-positive cells, sub-confluent 1HAEo- cells (1HAEo-cells): about 24%
binding of LID particles to confluent cells (confluent 1HAEo-cells): greatly increased
effect on transfection efficiency of sub-confluent cells [2]: no effect
increase of transfection efficiency of airway epithelial cells in vitro ([2]; green fluorescent protein and luciferase reporter genes): about four-fold
transfection efficiency, confluent cells co-treated with EGTA ([2]; green fluorescent reporter gene): 20 to 30%
recovery of transepithelial resistance after removal [3]: 16 to 18 h
time after exposure at which transepithelial resistance dropped [3]: about 10 minutes
enhancement of transfection of mouse lung (luciferase, RLU per mg lung protein) (mouse lung; 100 mM EGTA, 8 μg plasmid DNA in 50 μl, intra-tracheal): about four-fold
lethality (mouse lung; 400 mM EGTA in vivo): lethal in many cases
